ChEMBL document CHEMBL1156573, “Design and synthesis of a novel series of N-alkyl isatin acylhydrazone derivatives that act as selective cannabinoid receptor 2 agonists for the treatment of neuropathic pain” (J Med Chem, 2008)
Active and inactive are the calls of the source. The calls are words filed in the database; no cut-off is given here.

Assays:
[1] = target: Cannabinoid receptor 1 (Homo sapiens) (UniProt P21554); assay: Displacement of [3H]CP-55940 from human CB1 receptor expressed in CHO cells at 1 uM by liquid scintillation counting; assay type: cell-based
Cannabinoid receptor 1 (Homo sapiens), sequence (P21554 whole entry): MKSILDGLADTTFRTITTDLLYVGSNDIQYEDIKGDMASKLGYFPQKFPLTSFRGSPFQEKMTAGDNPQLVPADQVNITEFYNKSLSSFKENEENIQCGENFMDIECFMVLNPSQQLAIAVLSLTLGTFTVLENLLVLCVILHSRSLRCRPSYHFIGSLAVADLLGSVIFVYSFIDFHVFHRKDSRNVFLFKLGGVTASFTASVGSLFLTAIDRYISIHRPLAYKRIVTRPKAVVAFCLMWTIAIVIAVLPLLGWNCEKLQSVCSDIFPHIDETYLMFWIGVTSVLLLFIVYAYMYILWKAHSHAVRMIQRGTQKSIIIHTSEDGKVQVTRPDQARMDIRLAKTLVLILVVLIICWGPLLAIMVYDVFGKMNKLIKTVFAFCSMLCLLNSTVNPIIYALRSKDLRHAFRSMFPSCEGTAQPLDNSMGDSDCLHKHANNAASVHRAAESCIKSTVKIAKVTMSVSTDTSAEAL

[2] = target: T1, Cannabinoid receptor 2 (Homo sapiens, UniProt P34972); assay: Displacement of [3H](R)-3-methyl-2-(3-(morpholinomethyl)-3,4-dihydro-2H-benzo[b][1,4]oxazin-5-yl)-1-(naphthalen-1-yl)but-2-en-1-one from human CB2 receptor expressed in CHO cells at 1 uM by liquid scintillation counting; assay type: cell-based
T1 sequence (P34972 whole entry): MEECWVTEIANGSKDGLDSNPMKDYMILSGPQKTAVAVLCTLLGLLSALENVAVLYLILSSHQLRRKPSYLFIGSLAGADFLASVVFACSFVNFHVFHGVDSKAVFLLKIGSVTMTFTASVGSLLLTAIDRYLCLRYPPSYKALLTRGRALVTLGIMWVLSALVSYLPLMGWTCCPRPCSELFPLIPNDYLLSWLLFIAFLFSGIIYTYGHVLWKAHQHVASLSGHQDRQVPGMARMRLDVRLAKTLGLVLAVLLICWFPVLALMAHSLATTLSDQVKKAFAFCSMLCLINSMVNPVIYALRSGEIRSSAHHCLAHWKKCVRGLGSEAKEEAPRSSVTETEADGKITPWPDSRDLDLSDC

[3] = target: Cannabinoid receptor 1 (Homo sapiens) (UniProt P21554); assay: Displacement of [3H]CP-55940 from human CB1 receptor expressed in CHO cells at 10 uM by liquid scintillation counting; assay type: cell-based
[4] = target: T1, Cannabinoid receptor 2; assay: Displacement of [3H](R)-3-methyl-2-(3-(morpholinomethyl)-3,4-dihydro-2H-benzo[b][1,4]oxazin-5-yl)-1-(naphthalen-1-yl)but-2-en-1-one from human CB2 receptor expressed in CHO cells at 10 uM by liquid scintillation counting; assay type: cell-based
[5] = target: Cannabinoid receptor 1 (Homo sapiens) (UniProt P21554); assay: Agonist activity at human CB1 receptor expressed in CHO cells by [35S]GTPgammaS assay relative to CP-55940; assay type: functional, cell-based
[6] = target: Cannabinoid receptor 1 (Homo sapiens) (UniProt P21554); assay: Agonist activity at human CB1 receptor expressed in CHO cells at 10 uM by [35S]GTPgammaS assay; assay type: functional, cell-based
[7] = target: T1, Cannabinoid receptor 2; assay: Agonist activity at human CB2 receptor expressed in CHO cells by [35S]GTPgammaS assay relative to CP-55940; assay type: functional, cell-based
[8] = target: Cannabinoid receptor 1 (Homo sapiens) (UniProt P21554); assay: Agonist activity at human CB1 receptor expressed in CHO cells at 3 uM by [35S]GTPgammaS assay relative to CP-55940; assay type: functional, cell-based
[9] = test system: Rattus norvegicus; assay: Antiallodynic activity in AM-630-pretreated ip dosed spinal nerve ligated Sprague-Dawley rat model assessed as inhibition of tactile allodynia; assay type: functional, organism-based
[10] = target: T1, Cannabinoid receptor 2; assay: Displacement of [3H]CP-55940 from human CB2 receptor expressed in CHOK1 cells by liquid scintillation counting; assay type: cell-based, CHO-K1
[11] = target: T1, Cannabinoid receptor 2; assay: Agonist activity at human CB2 receptor expressed in CHO cells at 3 uM by [35S]GTPgammaS assay relative to CP-55940; assay type: functional, cell-based
[12] = target: T1, Cannabinoid receptor 2; assay: Agonist activity at human CB2 receptor expressed in CHO cells by [35S]GTPgammaS assay; assay type: functional, cell-based
[13] = test system: Rattus norvegicus; assay: Antiallodynic activity in spinal nerve ligated Sprague-Dawley rat model assessed as inhibition of tactile allodynia at 10 mg/kg, ip; assay type: functional, organism-based; set-up: dose 10 mg/kg
[14] = test system: Rattus norvegicus; assay: Antiallodynic activity in ip dosed spinal nerve ligated Sprague-Dawley rat model assessed as inhibition of tactile allodynia; assay type: functional
[15] = test system: Rattus norvegicus; assay: Antiallodynic activity in spinal nerve ligated Sprague-Dawley rat model assessed as inhibition of tactile allodynia at 15 mg/kg, ip; assay type: functional, organism-based; set-up: dose 15 mg/kg
[16] = test system: Rattus norvegicus; assay: Toxicity in Sprague-Dawley rat assessed as exploratory behavior at 15 mg/kg, ip by open-field chamber test; assay type: organism-based; set-up: dose 15 mg/kg, route intraperitoneal; details: in vivo

Row | Compound | Activity [1] | Activity [2] | Emax [7] | further results
1 | O=C(N/N=C1\C(=O)N(CCN2C(=O)c3ccccc3C2=O)c2ccccc21)c1ccccc1 | 3% | 3% |  | 
2 | O=C1/C(=N\NC(=S)Nc2ccccc2)c2ccccc2N1CCC1CCCCC1 |  |  |  | Activity [3]: < 40%; Activity [4]: < 40%
3 | CCCCCCN1C(=O)/C(=N\NC(=O)c2ccccc2)c2cccc(C)c21 | 67% | 68% | 34.2% | Activity [5]: inactive; Activity [6]: inactive
4 | CCCCCCCCCCCCN1C(=O)/C(=N\NC(=O)c2ccccc2)c2ccccc21 | 23.8% | 24.3% |  | 
5 | CCCCCCN1C(=O)/C(=N\NC(=O)c2cccc3ccccc23)c2ccccc21 | 83.9% | 69.8% | 30.5% | Emax [8]: 12.9%
6 | CCCCCCN1C(=O)/C(=N\NC(=O)c2ccc(OC)cc2)c2ccccc21 | 81.7% | 56% | 49.5% | Emax [5]: 71%
7 | CCCCCCN1C(=O)/C(=N\NC(=O)c2ccccc2)c2cc(F)ccc21 | 57% | 46% | 33.8% | Activity [5]: inactive; Activity [6]: inactive
8 | CCCCCCN1C(=O)/C(=N\NC(=O)Cc2ccccc2)c2ccccc21 |  |  | 45.8% | Activity [3]: 98.2%; Activity [4]: 91.5%; Emax [5]: 71.9%
9 | O=C1/C(=N\NS(=O)(=O)c2ccccc2)c2ccccc2N1CCC1CCCCC1 |  |  |  | Activity [3]: < 40%; Activity [4]: < 40%
10 | CCCCCCN1C(=O)/C(=N\NC(=O)c2ccccc2)c2cc(Cl)ccc21 | 9% | 6% |  | 
11 | CCCCCCN1C(=O)/C(=N\NC(=O)CCCCC)c2ccccc21 | 45.2% | 36.6% |  | 
12 | CN1CCCCC1Cn1cc(C(=O)c2cc([N+](=O)[O-])ccc2I)c2ccccc21 (configuration not stated) |  |  |  | Activity [9]: inactive
13 | CCCCCN1C(=O)/C(=N\NC(=O)c2ccccc2)c2ccccc21 | 95% | 80% | 68.5% | Emax [5]: 95.1%
14 | O=C(N/N=C1\C(=O)N(CC2CCCCC2)c2ccccc21)c1ccccc1 | 99% | 100% | 65.7% | Emax [5]: 99%
15 | CCCCN1C(=O)/C(=N\NC(=O)c2ccccc2)c2ccccc21 | 86% | 70% | 98.9% | Emax [8]: 69%; Ki [10]: 19.3 nM
16 | O=C(N/N=C1\C(=O)N(CCC2CCCCC2)c2ccccc21)c1ccccc1 |  |  | 55.6% | Activity [3]: 96%; Activity [4]: 79.8%; Emax [5]: 56.8%; Ki [10]: 58.8 nM
17 | O=C(Cc1ccccc1)N/N=C1\C(=O)N(CCC2CCCCC2)c2ccccc21 |  |  | 21% | Activity [3]: 88.8%; Activity [4]: 47.2%; Emax [5]: 75%
18 | CCCN1C(=O)/C(=N\NC(=O)c2ccccc2)c2ccccc21 | 43% | 32% | 61.4% | Activity [5]: inactive; Activity [6]: inactive
19 | CCCCCCN1C(=O)/C(=N\NC(=O)c2ccccc2)c2cccc(I)c21 | 61% | 66% |  | Activity [5]: inactive; Activity [6]: inactive; Emax [11]: 55%

Row | Compound | Activity [1] | Activity [2] | Emax [7] | further results
20 | CCCCCCN1C(=O)/C(=N\NC(=O)Nc2ccccc2)c2ccccc21 |  |  |  | Activity [3]: < 40%; Activity [4]: < 40%
21 | CCCCCCN1C(=O)/C(=N\NC(=S)Nc2ccccc2)c2ccccc21 |  |  |  | Activity [3]: 49%; Activity [4]: 37.7%
22 | CCCCCCN1C(=O)/C(=N\NC(=O)OC(C)(C)C)c2ccccc21 | 85.1% | 82.3% | 43.4% | Emax [5]: 92%; Ki [10]: 13.9 nM
23 | CCCCCCN1C(=O)/C(=N\NC(=O)c2ccccc2)c2cc(OC)ccc21 | 26% | 17% |  | 
24 | O=C(N/N=C1\C(=O)N(c2ccccc2)c2ccccc21)c1ccccc1 | 18% | 8% |  | 
25 | O=C(N/N=C1\C(=O)N(Cc2ccccc2)c2ccccc21)c1ccccc1 | 87% | 55% | 92.7% | Emax [5]: 57%; EC50 [12]: 63.7 nM; Emax [8]: 57%; Ki [10]: 18.5 nM
26 | CCCCCCN1C(=O)/C(=N/NS(=O)(=O)c2ccccc2)c2ccccc21 |  |  |  | Activity [3]: < 40%; Activity [4]: < 40%
27 | CCCCCCN1C(=O)/C(=N\NC(=O)c2ccc(Cl)cc2)c2ccccc21 | 46.6% | 32.7% |  | 
28 | CCCCCCN1C(=O)/C(=N\NC(=O)c2ccccc2)c2cccc(Cl)c21 | 60% | 29% | 64.8% | Activity [5]: inactive; Activity [6]: inactive
29 | CCCCCCN1C(=O)/C(=N/NC(=O)OC(C)(C)C)c2ccccc21 | 75% | 27% |  | Activity [6]: inactive; Activity [8]: inactive; Emax [11]: 23.4%
30 | CCCCCCN1C(=O)/C(=N\NC(=O)c2ccccc2)c2cc(C)ccc21 | 22% | 1% |  | 
31 | CCCCCCN1C(=O)/C(=N\NC(=O)C23CC4CC(CC(C4)C2)C3)c2ccccc21 | 82.6% | 90.7% |  | Emax [8]: 34.6%; Emax [11]: 32.1%
32 | CCCCCCN1C(=O)/C(=N\NC(=O)c2cc3ccccc3s2)c2ccccc21 | < 30% | < 30% |  | 
33 | CCCCCCN1C(=O)/C(=N\NC(=O)C2CCCCC2)c2ccccc21 | 65.8% | 61% | 58% | Emax [8]: 40.9%
34 | CCCCCCN1C(=O)/C(=N\NC(=O)c2ccccc2)c2ccccc21 |  |  | 68.8% | Activity [3]: 95.5%; Activity [4]: 92.8%; Emax [5]: 59.7%; Ki [10]: 44.3 nM; Activity [13]: Active; ED90 [14]: 12 mg/kg; Activity [15]: Active; Activity [16]: Non-toxic
35 | O=C(N/N=C1\C(=O)N(CCC2CCCCC2)c2ccccc21)Nc1ccccc1 |  |  |  | Activity [3]: < 40%; Activity [4]: < 40%
36 | O=C(N/N=C1\C(=O)N(Cc2ccc(Cl)cc2)c2ccccc21)c1ccccc1 | 94.5% | 22% | 39.8% | Emax [5]: 72%
37 | CCCCCN1C(=O)/C(=N\NC(=O)c2ccccc2)c2cc(I)ccc21 | 25% | 10% |  | 
38 | CCCCCCN1C(=O)/C(=N\NC(=O)c2ccc3ccccc3c2)c2ccccc21 | < 30% | < 30% |  | 
